Legend:
[1] = reversion of Compound 1 to β-lapachone in dilute or buffered solution (UV-vis, HPLC); type: physicochemical
From the text: Thus, compound 1 also reverts back to β-lapachone under the conditions of high pH or when mixed with plasma. The hydroxy sulfonate of β-lapachone easily reverts back to β-lapachone in dilute solutions of bisulfite and other reagents. […] However, the mass by LC/MS for Compound 1 can be obtained using a short LC method where the acetonitrile/water mobile phase is acidified with 0.1% formic acid. Even under these conditions, two peaks are observed, one peak corresponding to Compound 1, and one to the β-lapachone released from the complex.

[2] = reversion of Compound 1 to β-lapachone in human plasma (UV-vis); type: in vitro ADME; settings: diluted human plasma
From the text: Thus, compound 1 also reverts back to β-lapachone under the conditions of high pH or when mixed with plasma.

[3] = maximum concentrations of β-lapachone converted to Compound 1 at different pHs; type: physicochemical
[4] = tested on: human cancer cell lines; settings: single agent, typical range, read-out: antineoplastic activity (IC50); cited from earlier work
[5] = equilibrium solubility of β-lapachone with bisulfites, HPLC; type: physicochemical; settings: 3-15 mg/mL sodium metabisulfite or sodium bisulfite in water or 2.5-5% HPβCD; shaken 24 hours
Procedure: Solutions of bisulfites at different concentrations were prepared in water or 2.5% HPβCD and an excess amount of β-lapachone was added to obtain a saturated solution. These solutions were shaken for 24 hours, filtered through a 0.45 μm filter, and analyzed for β-lapachone concentration by HPLC. The equilibrium solubility results, in the presence and absence of HPβCD, are illustrated in FIGS. 1A to 1C. Bisulfite can enhance the equilibrium solubility of β-lapachone depending on the concentration of the bisulfites. […] The solubility of the β-lapachone is directly proportional with the amounts of bisulfites added, until they reach respective saturation concentrations (See FIG. 1C).

[6] = From the text: Methyl beta-cyclodextrin (MeβCD) is a derivative of beta-cyclodextrin with 1-7 methyl substituents on the secondary O-2 positions.
HPβCD with two different degrees of substitutions, 6.9 and 4.3, were compared in terms of β-lapachone solubility.

[7] = tested on: normal or proliferating human PBMC; settings: cited from earlier work

stability: reversion to β-lapachone ([1]; diluted with mobile phase of acetonitrile and phosphate buffer pH 6.8, HPLC)	stability: reversion to β-lapachone ([1]; dilution to 20-100 μM or less, or pH increased to 6-7 or higher in combination with dilution, UV-vis)	stability in human plasma: reversion to β-lapachone ([2]; pH 7, listed as compound 1)	SMILES	stability: reversion to β-lapachone ([1]; diluted in phosphate buffered saline at pH 7, UV-vis)	stability in human plasma: reversion to β-lapachone ([2]; pH 7)	Converted β-lapachone Conc. ([3]; Na2S2O5 5 mg/mL, pH of the formulation 3.01)	Converted β-lapachone Conc. ([3]; Na2S2O5 5 mg/mL, pH of the formulation 4.46)	Converted β-lapachone Conc. ([3]; Na2S2O5 5 mg/mL, pH of the formulation 7.04)	Converted β-lapachone Conc. ([3]; NaHSO3 5 mg/mL, pH of the formulation 3.29)	Converted β-lapachone Conc. ([3]; NaHSO3 5 mg/mL, pH of the formulation 4.52)	Converted β-lapachone Conc. ([3]; NaHSO3 5 mg/mL, pH of the formulation 7.04)	IC50 [4]	equilibrium solubility in aqueous solution [5]	higher solubilizing effect of HPβCD of lower degree of substitution on β-lapachone solubility [6]	cytotoxic effects [7]
only the β-lapachone can be detected	converts Compound 1 back to β-lapachone	the only species present is β-lapachone	CC1(C)CCC2=C(O1)c1ccccc1C(O)(S(=O)(=O)[O-])C2=O.[Na+] (stereo not drawn) [Compound 1, Sodium 6-hydroxy-2,2-dimethyl-5-oxo-3,4,5,6-tetrahydro-2H-benzo(h)chromene-6-sulfonate]	UV-vis spectrum become identical to that for a solution of β-lapachone	UV-vis spectrum become identical to that for a solution of β-lapachone										
			CC1(C)CCC2=C(O1)c1ccccc1C(=O)C2=O [β-lapachone, 3,4-dihydro-2,2-dimethyl-2H-naphtho[1,2-b]pyran-5,6-dione]			5.90 mg/mL	5.76 mg/mL	1.88 mg/mL	5.76 mg/mL	5.97 mg/mL	2.23 mg/mL	1 to 10 µM	dramatically improve the solubility	16-17%	No cytotoxic effects were observed

Reference: US7790765B2, “Hydroxy sulfonate of quinone compounds and their uses” (ArQule, Inc., priority 2007, dated 2010)
